According to article PMC9014857 (ACS Medicinal Chemistry Letters, 2022):

Experiments:
[1] = tested on: EEEV V105; experiment: microbe, parasite or virus in culture; assay type: cell-based, eastern equine encephalitis virus; conditions: for EC50: Eastern equine encephalitis virus, Vero 76, 48 h, read-out: EEEV V105 CPE EC50
[2] = tested on: VEEV TC83; experiment: microbe, parasite or virus in culture; assay type: cell-based; conditions: Venezuelan equine encephalitis virus, read-out: CPE EC50 (VEEV TC83)
[3] = Mouse plasma stability; conditions: CD-1, mouse
[4] = tested on: VEEV INH9813; experiment: microbe, parasite or virus in culture; conditions: Venezuelan equine encephalitis virus, Vero 76, read-out: CPE EC50, VEEV and EEEV
[5] = tested on: VEEV INH9813

CN1CCN(C)C2C1=Nc1ccc([N+](=O)[O-])cc1C(=O)N2c1ccccc1 (stereo not shown) [7e]
EC50 [1]: 59 ± 10 nM

COc1ccc(N2C(=O)c3cc([N+](=O)[O-])ccc3N=C3C2N(C)CCN3C)cc1 (stereo not shown) [7a]
EC50 [2]: 41 nM

COc1ccc(N2C(=O)c3cc(C#N)cc(-c4ccc(C)nc4)c3N=C3C2N(C)CCN3C)cc1F (stereo not shown) [7o]
half-life [3]: > 4.82 h | EC50 [4]: 160 to 240 nM

COc1ccc(N2C(=O)c3cc(C#N)ccc3N=C3C2N(C)CCN3C)cc1 (stereo not shown) [7l]
loss in antiviral activity for EEEV [1]: 75 fold | loss in antiviral activity for VEEV [5]: 100 fold

COc1ccc(N2C(=O)c3cc([N+](=O)[O-])ccc3N=C3C2N(C)CCN3C)cc1F (stereo not shown) [7b]
EC50 [1]: 27 ± 3 nM
